Source: ChEMBL document CHEMBL3600333, “Optimization of a Stable Linker Involved DEVD Peptide-Doxorubicin Conjugate That Is Activated upon Radiation-Induced Caspase-3-Mediated Apoptosis” (J Med Chem, 2015)
Blank lines part the entries; values can stand above or below the compound they belong to. Active and inactive are the calls of the source. The rule behind the calls is not given here. Numbered stars: 1 amine (or outer) side, 2 acyl side, 3 side chain; on linkers, the order of the positions; unused ones are H or OH. Square brackets hold non-standard residues; d marks the D form. Peptide text beside a SMILES is read from it. * marks the point of attachment. Doxorubicin(3'-N) = COc1cccc2c1C(=O)c1c(O)c3c(c(O)c1C2=O)C[C@@](O)(C(=O)CO)C[C@@H]3O[C@H]1C[C@H](N*)[C@H](O)[C@H](C)O1; Mal(S(CH2)2NH)(CH2)5CO = O=C1CC(SCCN[*:1])C(=O)N1CCCCCC(=O)[*:2]

Key:
[1] = Drug uptake in nucleus of human MDA-MB-231 cells at 10 uM after 18 hrs by DAPI staining-based confocal laser scanning microscopic analysis; assay type: ADME, cell-based; conditions: mda-mb-231, 18 h
Mus musculus [2] = assay: Toxicity in Balb-c/nu mouse allografted with mouse SCC7 cells assessed as mortality at 5 mg/kg, iv administered daily measured within 6 days; assay type: organism-based, SCC-7; conditions: in vivo, 144 h
[3] = Drug uptake in cytoplasm of human MDA-MB-231 cells at 10 uM after 18 hrs by DAPI staining-based confocal laser scanning microscopic analysis; assay type: ADME, cell-based; conditions: mda-mb-231, 18 h
[4] = Octanol-water partition coefficient, log P of the compound at 100 ug after 3 hrs by shake-flask method; assay type: physicochemical
MDA-MB-231 [5] = assay: Cytotoxicity against human MDA-MB-231 cells assessed as cell viability after 48 hrs by MTT assay; assay type: functional, cell-based; conditions: for IC50: MDA-MB-231, 48 h
[6] = Retention time of the compound treated with (6S,9S,12S,15S,18S)-1,6-diamino-12-(2-carboxyethyl)-9-(carboxymethyl)-18-(2-(1-(6-((2S,3S,4S,6R)-3-hydroxy-2-methyl-6-((1S,3S)-3,5,12-trihydroxy-3-(2-hydroxyacetyl)-10-methoxy-6,11-dioxo-1,2,3,4,6,11-hexahydrotetracen-1-yloxy)tetrahydro-2H-pyran-4-ylamino)-6-oxohexyl)-2,5-dioxopyrrolidin-3-ylthio)ethylcarbamoyl)-1-imino-15-isopropyl-7,10,13,16-tetraoxo-2,8,11,14,17-pentaazaicosan-20-oic acid at 100 uM by HPLC analysis in presence of recombinant human caspase-3; assay type: physicochemical
MDA-MB-231 [7] = assay: Induction of apoptosis in human MDA-MB-231 cells assessed as downregulation of procaspase-3 expression at 1 to 100 uM after 48 hrs by Western blot analysis; assay type: functional, cell-based
MDA-MB-231 [8] = assay: Induction of apoptosis in human MDA-MB-231 cells assessed as upregulation of cleaved caspase-3 expression after 48 hrs by Western blot analysis; assay type: functional, cell-based
MDA-MB-231 [9] = assay: Induction of apoptosis in human MDA-MB-231 cells assessed as change in cell morphology at 5 uM preincubated for 24 hrs followed by exposure to 5 Gy linear X-ray measured after 6 to 24 hrs by DAPI staining-based fluorescence microscopic analysis; assay type: functional
[10] = Drug uptake in nucleus of human MDA-MB-231 cells assessed as doxorubicin moiety level at 100 uM using cyanine5.5-labeled compound after 1 hr by DAPI staining-based confocal laser scanning microscopic analysis in presence of recombinant human caspase-3; assay type: ADME, cell-based; conditions: mda-mb-231, 1 h
[11] = Stability of the compound at 100 uM after 60 mins by HPLC analysis in absence of recombinant human caspase-3; assay type: physicochemical; conditions: 1 h
Mus musculus [12] = assay: Toxicity in Balb-c/nu mouse allografted with mouse SCC7 cells assessed as decrease in body weight at 5 mg/kg molar equivalent of doxorubicin, iv administered daily for 7 days without X-ray treatment measured until day 14; assay type: organism-based, SCC-7; conditions: in vivo, 168 h
[13] = Drug uptake in cytoplasm of human MDA-MB-231 cells assessed as DEVD moiety level at 100 uM using cyanine5.5-labeled compound after 1 hr by DAPI staining-based confocal laser scanning microscopic analysis in presence of recombinant human caspase-3; assay type: ADME, cell-based; conditions: mda-mb-231, 1 h
Mus musculus [14] = assay: Toxicity in Balb-c/nu mouse allografted with mouse SCC7 cells assessed as mortality at 5 mg/kg molar equivalent of doxorubicin, iv administered daily for 7 days measured until day 14; assay type: organism-based, SCC-7; conditions: in vivo, 168 h
MDA-MB-231 [15] = assay: Cytotoxicity against human MDA-MB-231 cells assessed as cell viability at 0.1 to 100 uM after 48 hrs by MTT assay in presence of recombinant human caspase-3; assay type: functional, cell-based
MDA-MB-231 [16] = assay: Cytotoxicity against human MDA-MB-231 cells assessed as decrease in cell viability at 5 uM with 5 Gy linear X-ray treatment measured at 48 hrs by MTT assay (reference value: 53%); assay type: functional
Caspase-3 = target: T1, Caspase-3 (Homo sapiens, UniProt P42574); assay: Prodrug conversion assessed as recombinant human caspase-3-mediated compound 8 formation at 100 uM after 60 mins by HPLC analysis in presence of caspase-3 inhibitor Ac-DEVD-CHO; assay type: ADME; conditions: 1 h
T1 sequence (P42574 whole entry): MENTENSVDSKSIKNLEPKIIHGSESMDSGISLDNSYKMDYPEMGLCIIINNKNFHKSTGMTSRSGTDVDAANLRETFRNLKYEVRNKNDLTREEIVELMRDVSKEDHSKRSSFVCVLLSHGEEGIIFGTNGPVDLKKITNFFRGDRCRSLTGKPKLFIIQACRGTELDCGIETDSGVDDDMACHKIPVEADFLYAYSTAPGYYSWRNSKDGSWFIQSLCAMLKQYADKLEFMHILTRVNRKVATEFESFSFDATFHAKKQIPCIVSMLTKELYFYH

MDA-MB-231 [17] = assay: Induction of apoptosis in human MDA-MB-231 cells assessed as downregulation of procaspase-3 expression at 1 to 100 uM preincubated with recombinant human caspase-3 measured after 48 hrs by Western blot analysis; assay type: functional, cell-based
MDA-MB-231 [18] = assay: Induction of apoptosis in human MDA-MB-231 cells assessed as upregulation of cleaved caspase-3 expression up to 100 uM after 48 hrs by Western blot analysis; assay type: functional, cell-based
[19] = Drug uptake in nucleus of human MDA-MB-231 cells assessed as doxorubicin moiety level at 5 uM preincubated for 24 hrs followed by exposure to 5 Gy linear X-ray measured at 6 hrs by DAPI staining-based fluorescence microscopic analysis; assay type: ADME, cell-based; conditions: mda-mb-231, 6 h
MDA-MB-231 [20] = assay: Induction of apoptosis in human MDA-MB-231 cells assessed as upregulation of cleaved caspase-3 expression preincubated with recombinant human caspase-3 measured after 48 hrs by Western blot analysis; assay type: functional, cell-based
[21] = Retention time of the compound at 100 uM after 60 mins by HPLC analysis in absence of recombinant human caspase-3; assay type: physicochemical; conditions: 1 h
[22] = Drug uptake in nucleus of human MDA-MB-231 cells assessed as doxorubicin moiety level at 5 uM preincubated for 24 hrs followed by exposure to 5 Gy linear X-ray measured at 24 hrs by DAPI staining-based fluorescence microscopic analysis; assay type: ADME, cell-based; conditions: mda-mb-231, 24 h
Mus musculus [23] = assay: Toxicity in Balb-c/nu mouse allografted with mouse SCC7 cells assessed as decrease in body weight at 5 mg/kg molar equivalent of doxorubicin, iv administered daily for 7 days with 10 Gy X-ray treatment on first day of drug administration measured until day 14; assay type: organism-based, SCC-7; conditions: in vivo, 168 h
MDA-MB-231 [24] = assay: Induction of apoptosis in human MDA-MB-231 cells assessed as upregulation of cleaved caspase-3 expression at 1 to 100 uM pretreated with X-ray measured after 24 to 72 hrs by Western blot analysis; assay type: functional, cell-based
MDA-MB-231 [25] = assay: Cytotoxicity against human MDA-MB-231 cells assessed as decrease in cell viability at 5 uM with 5 Gy linear X-ray treatment after 24 hrs by MTT assay; assay type: functional, cell-based
[26] = Antitumor activity against mouse SCC7 cells allografted in Balb-c/nu mouse assessed as tumor growth inhibition at 5 mg/kg molar equivalent of doxorubicin, iv administered daily for 7 days without X-ray treatment relative to control; assay type: functional, SCC-7
[27] = Prodrug conversion assessed as 6-(3-(2-aminoethylthio)-2,5-dioxopyrrolidin-1-yl)-N-((2S,3S,4S,6R)-3-hydroxy-2-methyl-6-((1S,3S)-3,5,12-trihydroxy-3-(2-hydroxyacetyl)-10-methoxy-6,11-dioxo-1,2,3,4,6,11-hexahydrotetracen-1-yloxy)tetrahydro-2H-pyran-4-yl)hexanamide formation at 100 uM after 60 mins by HPLC analysis in absence of recombinant human caspase-3; assay type: physicochemical; conditions: 1 h
MDA-MB-231 [28] = assay: Cytotoxicity against human MDA-MB-231 cells assessed as cell viability at 100 uM after 48 hrs by MTT assay in absence of recombinant human caspase-3; assay type: functional, cell-based
[29] = Antitumor activity against mouse SCC7 cells allografted in Balb-c/nu mouse assessed as tumor growth inhibition at 5 mg/kg molar equivalent of doxorubicin, iv administered daily for 7 days with 10 Gy X-ray treatment on first day of drug administration (reference value: 54%); assay type: functional, SCC-7
MDA-MB-231 [30] = assay: Cytotoxicity against human MDA-MB-231 cells assessed as cell viability up to 10 uM after 48 hrs by MTT assay in absence of recombinant human caspase-3; assay type: functional, cell-based

- Drug uptake [3]: Active
- logP at 3 h [4]: -0.022
- Drug uptake [1]: Active
SMILES: COc1cccc2c1C(=O)c1c(O)c3c(c(O)c1C2=O)C[C@@](O)(C(=O)CO)C[C@@H]3O[C@H]1C[C@H](NC(=O)C2CCC(CN3C(=O)CC(SCCN)C3=O)CC2)[C@H](O)[C@H](C)O1 (some centres not stated)
- Activity (MDA-MB-231 [5]): Dose-dependent effect
- IC50 (MDA-MB-231 [5]): > 100 µM

- Drug uptake [3]: Active
- Drug uptake [1]: Not Active
SMILES: COc1cccc2c1C(=O)c1c(O)c3c(c(O)c1C2=O)C[C@@](O)(C(=O)CO)C[C@@H]3O[C@H]1CC(NC(=O)C2CCC(CN3C(=O)CC(SC[C@H](N)C(=O)O)C3=O)CC2)[C@H](O)[C@H](C)O1 (single isomer, unassigned)

- Drug uptake [3]: Active
- logP at 3 h [4]: -1.04
- Drug uptake [1]: Active
SMILES: COc1cccc2c1C(=O)c1c(O)c3c(c(O)c1C2=O)C[C@@](O)(C(=O)CO)C[C@@H]3O[C@H]1C[C@H](NC(=O)CN2C(=O)CC(SCCN)C2=O)[C@H](O)[C@H](C)O1 (some centres not stated)
- IC50 (MDA-MB-231 [5]): > 100 µM

Continued, compound first:

SMILES: COc1cccc2c1C(=O)c1c(O)c3c(c(O)c1C2=O)C[C@@](O)(C(=O)CO)C[C@@H]3O[C@H]1C[C@H](N)[C@H](O)[C@H](C)O1 [DOXORUBICIN]
- Drug uptake [1]: Active
- Activity (Mus musculus [2]): Toxic

SMILES: COc1cccc2c1C(=O)c1c(O)c3c(c(O)c1C2=O)C[C@@](O)(C(=O)CO)C[C@@H]3O[C@H]1C[C@H](NC(=O)c2cccc(N3C(=O)CC(SCCN)C3=O)c2)[C@H](O)[C@H](C)O1 (some centres not stated)
- Drug uptake [3]: Active
- logP at 3 h [4]: -0.121
- Drug uptake [1]: Active
- IC50 (MDA-MB-231 [5]): > 100 µM

SMILES: COc1cccc2c1C(=O)c1c(O)c3c(c(O)c1C2=O)C[C@@](O)(C(=O)CO)C[C@@H]3O[C@H]1C[C@H](NC(=O)CCCCCN2C(=O)CC(SCCN)C2=O)[C@H](O)[C@H](C)O1 (some centres not stated)
- Retention_time [6]: 20.6 min
- logP at 3 h [4]: -0.383
- Activity (MDA-MB-231 [7]): Active
- Drug uptake [1]: Active
- IC50 (MDA-MB-231 [5]): 4.6 µM
- Activity (MDA-MB-231 [8]): Dose-dependent effect

SMILES: COc1cccc2c1C(=O)c1c(O)c3c(c(O)c1C2=O)C[C@@](O)(C(=O)CO)C[C@@H]3O[C@H]1C[C@H](NC(=O)CCCCCN2C(=O)CC(SCCNC(=O)[C@H](CC(=O)O)NC(=O)[C@@H](NC(=O)[C@H](CCC(=O)O)NC(=O)[C@H](CC(=O)O)NC(=O)[C@@H](N)CCCNC(=N)N)C(C)C)C2=O)[C@H](O)[C@H](C)O1 (some centres not stated) (H-RDEVD[Mal(S(CH2)2NH)(CH2)5CO]-{Doxorubicin(3'-N)})
- Activity (MDA-MB-231 [9]): Active
- Drug uptake [10]: Active
- Drug uptake [3]: Active
- Stability [11]: Unstable
- Activity (Mus musculus [12]): Non-toxic
- Drug uptake [13]: Active
- Activity (Mus musculus [14]): Non-toxic
- Activity (MDA-MB-231 [15]): Active
- Drug uptake [1]: Active
- Activity (MDA-MB-231 [16]): 75%
- Drug metabolism (Caspase-3): metabolite_notdetected
- Activity (MDA-MB-231 [17]): Active
- Activity (MDA-MB-231 [18]): inactive
- Drug uptake [19]: Not Active
- Activity (MDA-MB-231 [20]): Dose-dependent effect
- Retention_time [21]: 21.4 min
- Drug uptake [22]: Active
- Activity (Mus musculus [23]): Non-toxic
- Activity (MDA-MB-231 [24]): Active
- Activity (MDA-MB-231 [25]): inactive
- TGI [26]: 15%
- Drug metabolism [27]: metabolite_notdetected
- Activity (MDA-MB-231 [28]): Active
- TGI [29]: 79%
- Activity (MDA-MB-231 [30]): inactive

SMILES: COc1cccc2c1C(=O)c1c(O)c3c(c(O)c1C2=O)C[C@@](O)(C(=O)CO)C[C@@H]3O[C@H]1C[C@H](NC(=O)CCCc2ccc(N3C(=O)CC(SCCN)C3=O)cc2)[C@H](O)[C@H](C)O1 (some centres not stated)
- Drug uptake [3]: Active
- logP at 3 h [4]: 0.313
- Drug uptake [1]: Active
- IC50 (MDA-MB-231 [5]): > 100 µM
